Measurements: EP4380555B1, “COMPOSITION COMPRISING D-MANNOSE, N-ACETYLCYSTEINE AND PALMITOYLETHANOLAMIDE AND ITS USE FOR THE TREATMENT OF URIRNARY TRACT INFECTIONS” (Agave S.r.l., priority 2021, dated 2023)

Tests used:
Enterococcus faecium [1] = experiment: MIC determination by broth dilution (CLSI M07), 96-well plates; format: cell-based; conditions: E. faecium; range tested: Comp. 1 100-0.05 g/L, D-mannose 65-0.03 g/L; 24 h
[2] = test system: Escherichia coli (DSM 1576); experiment: as above; format: cell-based; conditions: E. coli; range tested: Comp. 1 100-0.05 g/L, D-mannose 65-0.03 g/L; 24 h
Experimental: (§1) The antimicrobial activity of the product Comp. 1 in Example 10 was tested in vitro according to method CLSI M07 "Methods for dilution Antimicrobial susceptibility tests for bacteria that grow aerobically".
(§2) For this purpose, the MIC (Minimum Inhibitory Concentration) values were determined with respect to the main microorganisms responsible for urinary tract infections.
(§3) More specifically, the microorganisms utilised were: Escherichia coli (DSM 1576), Klebsiella pneumoniae (DSM 30104), and Enterococcus faecalis(DSM 20477).
(§4) For each experiment conducted, the bacteria stated above were revived from a cell bank stored at -80°C. […]
(§5) The assay to determine the MIC was conducted in 96-well plates testing 12 concentrations (serial dilutions) of each sample. 200 µL of the sample, prepared at a concentration of 2x with respect to the maximum concentration being tested, was dispensed into the first well and 100 µL medium was added to the subsequent wells, performing serial dilutions of 1:2 up to 12th well. Finally, 100 µL of each microorganism at a concentration of 10^5 was inoculated into each well.
(§6) Two antibiotics were used as controls: Fosfomycin (Sigma) and Ceftriaxone (Sigma) at different final concentrations based on the microorganism utilised; both the antibiotics were dissolved in sterile water and then filtered with 0.22 µm filters.
(§7) Growth was tested and the sterility of the medium and of the product was tested. The antimicrobial activity of the D-mannose was also assessed individually. The plates thus prepared were incubated at 37°C for 24h and the results were then observed (Figure 1). The final concentrations tested for each product analysed are stated in Table 2.

[3] = test system: Klebsiella pneumoniae (DSM 30104); experiment: as above; format: cell-based; conditions: K. pneumoniae; range tested: Comp. 1 100-0.05 g/L, D-mannose 65-0.03 g/L; 24 h
Experimental: as §1, §2, §3, §4, §5, §6, §7

Enterococcus faecium [4] = experiment: MBIC, comparison with D-mannose, crystal violet staining; format: cell-based
Experimental: (§8) To determine the MBIC with the product Comp. 1 in Example 10 with respect to the D-mannose, 48-well plates were utilised. 200 µL of the product Comp. 1, prepared at a concentration of 2x with respect to the maximum concentration being tested, was dispensed into the first well and […] was added to the subsequent wells, performing serial dilutions of 1:2 up to the 8th well. Finally, 200 µL of each microorganism, at a concentration of 10^5, was inoculated into each well. The biofilm inhibition activity of the D-mannose at the same concentration as that present in the product Comp. 1 was also assessed. The multiwell plates were incubated at 37°C for 24 hours and then the supernatant present was removed, together with the planktonic bacteria not attached to the plate. The biofilm was then washed 3 times with PBS and subsequently the cells were fixed by means of incubation at 60°C for 2 hours, before being stained with crystal violet. 100 µL crystal violet dissolved in deionised water was dispensed into each well and, after 5 minutes of incubation at room temperature, each well was finally washed three times with PBS 1x. The biofilm inhibition activity was viewed by microscopic observation under stereomicroscope and optical microscope using the phase-contrast method. The final concentrations tested for each compound are stated in Table 6. Table 6 [table]

Escherichia coli = experiment: as above; format: cell-based
Experimental: as §8

Klebsiella pneumoniae = experiment: as above; format: cell-based
Experimental: as §8

IL-8 = experiment: Anti-inflammatory activity: IL-8 production induced by TNFα, ELISA; format: cell-based, human; conditions: 0.2 µg/mL TNFα, 6 hours
Description: We assessed the capacity of the product Comp. 1 in Example 10 to inhibit or reduce the inflammatory state induced, in the same cells as in the previous example, by pro-inflammatory cytokine TNFα. This treatment led to the production of interleukin 8 (IL-8), which is cause of the "recruitment" of white blood cells to the site of inflammation. The IL-8 levels are directly proportional to the intensity of said inflammation.
The 6 product concentrations utilised in the anti-inflammatory test were chosen based on the cell viability test results. […] This is because the product per se leads to the reduction, and therefore the staining, of the MTT.
We first determined the optimal amount of TNFα to perform the test. […] The treatment was performed at 37°C and 5% CO2 for a total of 6 hours; aliquots of 200 µL of the growth medium were taken at the start of the treatment (T0) and after 1, 2, 4 and 6 hours, and then analysed by ELISA test. […]
Anti-inflammatory drug dexamethasone (dex) at a concentration of 0.1 mg/mL was utilised as a positive control. The treatment was performed for 6 hours, at the end of which as aliquots of 200 µL of the growth medium were taken and then analysed by ELISA test. […] The quantification was performed by setting up a calibration curve with different concentrations of a standard IL-8 solution, supplied with the kit. […]

Enterococcus faecium [5] = experiment: MBEC test of composition versus its components, 24 h preformed biofilm, crystal violet; format: cell-based; conditions: MBEC E. faecium
Experimental: To determine the minimum biofilm eradication concentration, 48-well plates were utilised. The microorganisms were incubated for 24 h at 37°C to allow the formation of the biofilm. Once formed, the biofilms were treated with the composition in Example 1 and the respective components (as per Example 17) to eradicate the biofilm. In particular, after the formation of the biofilm, the supernatant was suctioned and replaced with solutions containing decreasing concentrations of the product. The plates thus prepared were incubated for 24 h at 37°C. At the end of the incubation time, the supernatant present in each well was removed, together with the bacteria that was not attached to the plate and following the washes with sterile deionised water the plates were incubated at 60°C for 2 hours to fix the cells before the staining with crystal violet. The crystal violet staining was performed to assess the effect of the product and of the components thereof on the removal of the biofilm. 200 µL of crystal violet dissolved in deionised water at a concentration of 0.02% was dispensed into each well and, after 5 minutes of incubation at room temperature, each well was washed three times with sterile deionised water. The biofilm eradication activity was viewed under microscopic observation.

[6] = test system: Enterococcus Faecium DSM 20477; experiment: MBIC test of composition versus its components, crystal violet absorbency at 595 nm; format: cell-based; conditions: E. faecium MBIC
Experimental: (§9) The composition of Example 1 was tested to assess the capacity to inhibit the formation of biofilm shown by the following microorganisms: • Klebsiella Pneumoniae DSM 30104 • Enterococcus Faecium DSM 20477
(§10) The bacteria stated above were revived from the working cell bank, stored at -80°C, for each experiment conducted.
(§11) The tests were conducted on the following formulations: • Mannose 3000 mg + NAC 600 mg + PEA 600 mg (i.e. composition Example 1) • Mannose 3000 mg + NAC 600 mg • PEA 600 mg
(§12) The three formulations were dissolved at 100 gr/l in sterile TSB/TSYEM medium and then utilised to perform the MBIC test as follows.
(§13) MBIC 48-well plates were utilised for the determination. 800 µL sample, prepared at a concentration of 2x with respect to the maximum concentration being tested, was dispensed into the first well and 400 µL medium was added to the subsequent wells, performing serial dilutions of 1:2 up to the 8th well. Finally, 400 µL of each microorganism at a concentration of 10^5 was inoculated into each well. The multiwell plates were incubated at 37°C for 24 hours and then the supernatant present was removed, together with the planktonic bacteria not attached to the plate.
(§14) The biofilm was then washed 3 times with sterile deionised water and subsequently the cells were fixed by means of incubation at 60°C for 2 hours, before being stained with crystal violet. The crystal violet staining was performed to assess the effect of the product and the components thereof on the biofilm formation. 200 µL of 0.02% crystal violet dissolve in deionised water was dispensed into each well and, after 5 minutes of incubation at room temperature, each well was finally washed three times with sterile deionised water. The biofilm inhibition activity was viewed by microscopic observation under stereomicroscope.
(§15) At the end of the microscopic observation of the condition of the biofilm by staining, the stain fixed to the biofilm treated was extracted utilising 100% methanol for 5 minutes at room temperature. The methanolic extract thus obtained was analysed under spectrophotometer to measure the absorbency at 595 nm. As the solution stain intensity obtained is proportional to the biofilm remaining, absorbency is a quantitative parameter which can be used to measure the amount of biofilm. Absorbency was therefore utilised to determine the biofilm decrease percentage by comparing the data obtained following treatments against the untreated biofilm control.

[7] = test system: Klebsiella Pneumoniae DSM 30104; experiment: as above; format: cell-based; conditions: MBIC K. pneumoniae
Experimental: as §9, §10, §11, §12, §13, §14, §15

For O=C[C@@H](O)[C@@H](O)[C@H](O)[C@H](O)CO [D-mannose], the antimicrobial activity (Enterococcus faecium [1]) was “did not demonstrate any antimicrobial activity”, the antimicrobial activity [2] was “did not demonstrate any antimicrobial activity” and the antimicrobial activity [3] was “did not demonstrate any antimicrobial activity”. The “concentration of the mannose alone needed for the same efficaciousness as Comp. 1” value (shortened to “concentration … as Comp. 1”) (Enterococcus faecium [4]; E. faecium biofilm) was “approximately 10 times”, the “concentration with evident activity on the biofilm” value (Enterococcus faecium [4]; E. faecium, 24 h) was 65 g/L and the “concentration … as Comp. 1” value (Escherichia coli; E. coli biofilm) was “approximately 2.5 times”. For the same compound, the “concentration active on biofilm formation” value (Escherichia coli; E. coli, 24 h) was 32.5 g/L, the “concentration … as Comp. 1” value (Klebsiella pneumoniae; K pneumoniae biofilm) was “approximately 10 times” and the “concentration active on biofilm formation” value (Klebsiella pneumoniae; K. pneumoniae, 24 h) was 8.13 g/L.
In the case of C[C@@H]1C[C@H]2[C@@H]3CCC4=CC(=O)C=C[C@]4(C)[C@@]3(F)[C@@H](O)C[C@]2(C)[C@@]1(O)C(=O)CO [Dex, dexamethasone], the “concentration of IL-8 with respect to the cells treated solely with TNFα” value (IL-8; Dex 0.1 mg/mL, TNFα alone = 100) is reported as 69% and the “IL-8 produced less than that produced by the cells treated solely with TNFα” value (IL-8; Dexamethasone 0.1 mg/mL) is reported as 31%.
In the case of CCCCCCCCCCCCCCCC(=O)NCCO [PEA, palmitoylethanolamide], the “Abs 595 nm” value (Enterococcus faecium [5]; 24 h biofilm, 24 h treatment, untreated biofilm 2.09) is reported as 2.098, the “% decrease” value (Enterococcus faecium [5]; treated versus untreated biofilm) is reported as 0% and the “Abs 595 nm” value ([6]; 3.13 g/L product of Example 1, components at the same concentration as in the composition, untreated biofilm 0.318) is reported as 0.304. The “% decrease” value ([6]; treated versus untreated biofilm, 3.13 g/L product of Example 1) was 4%, the “Abs 595 nm” value ([7]; 1.56 g/L product of Example 1, components at the same concentration as in the composition, untreated biofilm 0.176) was 0.129 and the “% decrease” value ([7]; treated versus untreated biofilm, 1.56 g/L product of Example 1) was 26.70%.
